In patent US7384629B2, “Biological control of nematodes with Hirsutella minnesotensis” (Regents of the University of Minnesota, priority 2000, dated 2008):

How the values were obtained:
Hirsutella rhossiliensis [1] = experiment: Effect of nitrogen source on growth, sporulation and spore germination; conditions: for Growth mm-in-diam, on agar: nitrogen source 0.3296 g/L nitrogen; for Growth mm-in-diam, on agar / growth in liquit culture (visual rating) / Sporulation 10^3/cm^2, on agar: 5 weeks; for Spore germination %, on agar / growth in liquit culture (visual rating) / Sporulation 10^3/cm^2, on agar: nitrogen source
Hirsutella rhossiliensis [2] = experiment: Effect of carbon source on growth, sporulation and spore germination; conditions: for Growth mm-in-diam, on agar: carbon source 4 g/liter carbon; for Growth mm-in-diam, on agar / Sporulation 10^3/cm^2, on agar / growth in liquid culture (visual rating): 5 weeks; for Sporulation 10^3/cm^2, on agar / growth in liquid culture (visual rating) / Spore germination %, on agar: carbon source; for Spore germination %, on agar: after incubation for 24 hr

Compound	Growth mm-in-diam, on agar (Hirsutella rhossiliensis [1]; isolate ATCC46487) [mm-in-diam]	Growth mm-in-diam, on agar (Hirsutella rhossiliensis [1]; isolate JA16-1) [mm-in-diam]	Growth mm-in-diam, on agar (Hirsutella rhossiliensis [1]; isolate OWVT-1)	Spore germination %, on agar (Hirsutella rhossiliensis [1]; isolate ATCC46487) [%]	Spore germination %, on agar (Hirsutella rhossiliensis [1]; isolate JA16-1) [%]	Spore germination %, on agar (Hirsutella rhossiliensis [1]; isolate OWVT-1) [%]	growth in liquit culture (visual rating) (Hirsutella rhossiliensis [1]; isolate OWVT-1)	growth in liquit culture (visual rating) (Hirsutella rhossiliensis [1]; isolate JA16-1)	other results
NC(CCC(=O)O)C(=O)O (racemic) [DL-Glutamic acid]	40.8	12.8	18.7 mm-in-diam	74.4	90.0	48.9	III (III = hyphae growth or colonies form a pellet, less than 2.5 ml)	–	–
CSCCC(N)C(=O)O (racemic) [DL-Methionine]	11.7	0.0	0.0^ mm-in-diam	74.4	70.0	63.3	I	I	Sporulation 10^3/cm^2, on agar (Hirsutella rhossiliensis [1]; isolate ATCC46487): 3.2 10^3/cm^2; growth in liquit culture (visual rating) (Hirsutella rhossiliensis [1]; isolate ATCC46487): III (III = hyphae growth or colonies form a pellet, less than 2.5 ml); Sporulation 10^3/cm^2, on agar (Hirsutella rhossiliensis [1]; isolate JA16-1): 10.8 10^3/cm^2; Sporulation 10^3/cm^2, on agar (Hirsutella rhossiliensis [1]; isolate OWVT-1): 0.0 10^3/cm^2
NC(CO)C(=O)O (racemic) [DL-Serine]	45.3	10.2	17.2 mm-in-diam	84.4	87.8	72.2	IV (IV = the pellet diameter larger than 1 cm, but the total volume distribution less than 5 ml)	III (III = hyphae growth or colonies form a pellet, less than 2.5 ml)	–
C[C@@H](O)[C@H](N)C(=O)O (racemic) [DL-Threonine]	25.4	8.3	9.0 mm-in-diam	93.3	83.3	48.9	III (III = hyphae growth or colonies form a pellet, less than 2.5 ml)	IV (IV = the pellet diameter larger than 1 cm, but the total volume distribution less than 5 ml)	–
NCC(=O)O [Glycine]	41.5	7.5	10.7 mm-in-diam	75.6	93.3	60.0	III (III = hyphae growth or colonies form a pellet, less than 2.5 ml)	III (III = hyphae growth or colonies form a pellet, less than 2.5 ml)	–
NC(=O)C[C@H](N)C(=O)O [L-Asparagine]	51.8	16.5	20.8 mm-in-diam	93.3	85.5	70.0	III (III = hyphae growth or colonies form a pellet, less than 2.5 ml)	IV (IV = the pellet diameter larger than 1 cm, but the total volume distribution less than 5 ml)	–
N[C@@H](CC(=O)O)C(=O)O [L-Aspartic acid]	43.8	13.3	16.8 mm-in-diam	93.3	90.0	53.3	III (III = hyphae growth or colonies form a pellet, less than 2.5 ml)	IV (IV = the pellet diameter larger than 1 cm, but the total volume distribution less than 5 ml)	–
N[C@@H](Cc1c[nH]cn1)C(=O)O [L-Histidine]	36.3	8.5	12.8 mm-in-diam	82.2	82.2	65.6	III (III = hyphae growth or colonies form a pellet, less than 2.5 ml)	–	Sporulation 10^3/cm^2, on agar (Hirsutella rhossiliensis [1]; isolate ATCC46487): 1.8 10^3/cm^2; Sporulation 10^3/cm^2, on agar (Hirsutella rhossiliensis [1]; isolate JA16-1): 3.4 10^3/cm^2; Sporulation 10^3/cm^2, on agar (Hirsutella rhossiliensis [1]; isolate OWVT-1): 2.1 10^3/cm^2
N[C@@H](Cc1ccccc1)C(=O)O [L-Phenylalanine]	34.3	11.7	17.5 mm-in-diam	77.8	86.7	68.3	IV (IV = the pellet diameter larger than 1 cm, but the total volume distribution less than 5 ml)	–	Sporulation 10^3/cm^2, on agar (Hirsutella rhossiliensis [1]; isolate ATCC46487): 7.9 10^3/cm^2; Sporulation 10^3/cm^2, on agar (Hirsutella rhossiliensis [1]; isolate JA16-1): 79.0 10^3/cm^2; Sporulation 10^3/cm^2, on agar (Hirsutella rhossiliensis [1]; isolate OWVT-1): 15.9 10^3/cm^2
N[C@@H](CSSC[C@H](N)C(=O)O)C(=O)O [L-cystine]	0.0	0.0	0.0^ mm-in-diam	14.4	4.4	5.6	–	0	–
OC[C@H]1O[C@@](CO)(O[C@H]2O[C@H](CO)[C@@H](O)[C@H](O)[C@H]2O)[C@@H](O)[C@@H]1O [Sucrose]	–	–	–	–	–	–	–	–	Growth mm-in-diam, on agar (Hirsutella rhossiliensis [2]; isolate ATCC46487): 39.5 mm-in-diam; Growth mm-in-diam, on agar (Hirsutella rhossiliensis [2]; isolate JA16-1): 15.0 mm-in-diam; Growth mm-in-diam, on agar (Hirsutella rhossiliensis [2]; isolate OWVT-1): 21.8 mm-in-diam; Sporulation 10^3/cm^2, on agar (Hirsutella rhossiliensis [2]; isolate ATCC46487): 38.9 10^3/cm^2; growth in liquid culture (visual rating) (Hirsutella rhossiliensis [2]; isolate ATCC46487): III (III = hyphae growth or colonies form a pellet, less than 2.5 ml); Spore germination %, on agar (Hirsutella rhossiliensis [2]; isolate ATCC46487): 55.6%; Sporulation 10^3/cm^2, on agar (Hirsutella rhossiliensis [2]; isolate JA16-1): 6.9 10^3/cm^2; growth in liquid culture (visual rating) (Hirsutella rhossiliensis [2]; isolate JA16-1): I; Spore germination %, on agar (Hirsutella rhossiliensis [2]; isolate JA16-1): 73.4%; Sporulation 10^3/cm^2, on agar (Hirsutella rhossiliensis [2]; isolate OWVT-1): 47.7 10^3/cm^2; Spore germination %, on agar (Hirsutella rhossiliensis [2]; isolate OWVT-1): 52.2%
O.OC[C@H]1O[C@@H](O[C@H]2[C@H](O)[C@@H](O)[C@@H](O)O[C@@H]2CO)[C@H](O)[C@@H](O)[C@H]1O [a-lactose monohydrate]	–	–	–	–	–	–	–	–	Growth mm-in-diam, on agar (Hirsutella rhossiliensis [2]; isolate ATCC46487): 35.8 mm-in-diam; Growth mm-in-diam, on agar (Hirsutella rhossiliensis [2]; isolate JA16-1): 15.8 mm-in-diam; Growth mm-in-diam, on agar (Hirsutella rhossiliensis [2]; isolate OWVT-1): 9.8 mm-in-diam; Sporulation 10^3/cm^2, on agar (Hirsutella rhossiliensis [2]; isolate ATCC46487): 2.4 10^3/cm^2; growth in liquid culture (visual rating) (Hirsutella rhossiliensis [2]; isolate ATCC46487): I; Spore germination %, on agar (Hirsutella rhossiliensis [2]; isolate ATCC46487): 56.7%; Sporulation 10^3/cm^2, on agar (Hirsutella rhossiliensis [2]; isolate JA16-1): 37.3 10^3/cm^2; growth in liquid culture (visual rating) (Hirsutella rhossiliensis [2]; isolate JA16-1): I; Spore germination %, on agar (Hirsutella rhossiliensis [2]; isolate JA16-1): 68.9%; Sporulation 10^3/cm^2, on agar (Hirsutella rhossiliensis [2]; isolate OWVT-1): 17.4 10^3/cm^2; growth in liquid culture (visual rating) (Hirsutella rhossiliensis [2]; isolate OWVT-1): I; Spore germination %, on agar (Hirsutella rhossiliensis [2]; isolate OWVT-1): 42.2%
Glycogen	–	–	–	–	–	–	–	–	Growth mm-in-diam, on agar (Hirsutella rhossiliensis [2]; isolate ATCC46487): 46.8 mm-in-diam; Growth mm-in-diam, on agar (Hirsutella rhossiliensis [2]; isolate JA16-1): 20.5 mm-in-diam; Growth mm-in-diam, on agar (Hirsutella rhossiliensis [2]; isolate OWVT-1): 34.8 mm-in-diam; Sporulation 10^3/cm^2, on agar (Hirsutella rhossiliensis [2]; isolate ATCC46487): 77.5 10^3/cm^2; Spore germination %, on agar (Hirsutella rhossiliensis [2]; isolate ATCC46487): 72.2%; Sporulation 10^3/cm^2, on agar (Hirsutella rhossiliensis [2]; isolate JA16-1): 12.4 10^3/cm^2; growth in liquid culture (visual rating) (Hirsutella rhossiliensis [2]; isolate JA16-1): IV (IV = the pellet diameter larger than 1 cm, but the total volume distribution less than 5 ml); Spore germination %, on agar (Hirsutella rhossiliensis [2]; isolate JA16-1): 77.8%; Sporulation 10^3/cm^2, on agar (Hirsutella rhossiliensis [2]; isolate OWVT-1): 7.9 10^3/cm^2; growth in liquid culture (visual rating) (Hirsutella rhossiliensis [2]; isolate OWVT-1): IV (IV = the pellet diameter larger than 1 cm, but the total volume distribution less than 5 ml); Spore germination %, on agar (Hirsutella rhossiliensis [2]; isolate OWVT-1): 72.2%
Inulin	–	–	–	–	–	–	–	–	Growth mm-in-diam, on agar (Hirsutella rhossiliensis [2]; isolate ATCC46487): 36.7 mm-in-diam; Growth mm-in-diam, on agar (Hirsutella rhossiliensis [2]; isolate JA16-1): 20.0 mm-in-diam; Growth mm-in-diam, on agar (Hirsutella rhossiliensis [2]; isolate OWVT-1): 25.2 mm-in-diam; Sporulation 10^3/cm^2, on agar (Hirsutella rhossiliensis [2]; isolate ATCC46487): 3.5 10^3/cm^2; Spore germination %, on agar (Hirsutella rhossiliensis [2]; isolate ATCC46487): 54.4%; Sporulation 10^3/cm^2, on agar (Hirsutella rhossiliensis [2]; isolate JA16-1): 10.4 10^3/cm^2; growth in liquid culture (visual rating) (Hirsutella rhossiliensis [2]; isolate JA16-1): I; Spore germination %, on agar (Hirsutella rhossiliensis [2]; isolate JA16-1): 72.2%; Sporulation 10^3/cm^2, on agar (Hirsutella rhossiliensis [2]; isolate OWVT-1): 4.2 10^3/cm^2; Spore germination %, on agar (Hirsutella rhossiliensis [2]; isolate OWVT-1): 50.0%
